Values of other authors in patent publication US20130096316A1, “Novel Method for Preparation of Bisnorcymerine and Salts Thereof” (QR PHARMA, INC., priority 2011, published 2013).

Molecular target: human BChE (Homo sapiens, UniProt P06276)
Conditions: ratio of the AChE IC50 to the BChE IC50; cited from Yu et al., 1999

Sequence of human BChE (P06276 29-602): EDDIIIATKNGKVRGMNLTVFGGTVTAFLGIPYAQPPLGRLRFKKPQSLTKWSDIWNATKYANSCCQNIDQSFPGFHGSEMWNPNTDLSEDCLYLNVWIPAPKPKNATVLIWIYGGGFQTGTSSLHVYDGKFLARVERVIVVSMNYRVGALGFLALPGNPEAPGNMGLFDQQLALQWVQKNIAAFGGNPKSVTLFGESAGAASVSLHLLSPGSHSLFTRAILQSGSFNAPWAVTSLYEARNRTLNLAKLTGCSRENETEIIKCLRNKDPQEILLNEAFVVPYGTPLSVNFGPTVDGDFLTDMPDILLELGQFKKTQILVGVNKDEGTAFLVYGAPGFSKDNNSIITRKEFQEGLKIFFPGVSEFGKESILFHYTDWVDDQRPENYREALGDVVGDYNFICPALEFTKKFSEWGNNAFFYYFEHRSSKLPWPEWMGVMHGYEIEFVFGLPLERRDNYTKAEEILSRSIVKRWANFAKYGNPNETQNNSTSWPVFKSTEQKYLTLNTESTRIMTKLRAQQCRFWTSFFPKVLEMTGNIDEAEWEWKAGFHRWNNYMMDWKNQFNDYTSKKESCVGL

Structure (SMILES): CC(C)c1ccc(NC(=O)Oc2ccc3c(c2)[C@]2(C)CCNC2N3)cc1 (stereo partly drawn) [Compound 1, (3aS)-3a-methyl-1,2,3,3a,8,8a-hexahydropyrrolo[2,3-b]indol-5-yl (4-isopropylphenyl)carbamate]
- selectivity for inhibition of BChE as compared to AChE: 110 fold
